Patent US9802921B2, “Fluoromethyl-substituted pyrrole carboxamides iv” (Grünenthal GmbH, priority 2013, dated 2017)

Biological target: T1, Human CaV2.2 channels (Homo sapiens, UniProt Q00975)
T1 construct: expressed in transfected cells
Assay: Fluorescent assay for CaV2.2 channels using potassium depolarization to induce channel opening (FLIPR, Fluo 4)
Assay type: cell-based
Conditions: read-out: Activity Category: %-Inhib (CaV2.2) @3 μM @30 mM KCl; 3 μM test compound; 30 mM KCl as printed; HEK293 cells stably expressing human CaV2.2
Excerpt: In the process, the Ca^2+ influx is quantified in the FLIPR assay with the aid of a Ca^2+-sensitive dye (type Fluo-4, Molecular Probes Europe BV, Leiden, the Netherlands) in a fluorescent imaging plate reader (FLIPR 3, Molecular Devices, Sunnyvale, USA), as described hereinafter.
Human CaV2.2 channels were stably expressed in HEK293 cells together with alpha2-delta and beta subunits of voltage gated calcium channels. In addition, an inwardly rectifying potassium channel (Kir2.3) was stably expressed in these cells to augment control of the cell membrane potential by the concentration of extracellular potassium ions. Raise of the extracellular potassium concentration leads to depolarization of the membrane potential and thus regulates the voltage dependent state of CaV2.2 channels. For preparation, cells were seeded in black poly-D-lysine coated 96-well plates (Becton Dickinson, Biocoat 4640) in 100 μL medium [500 mL DMEM/F-12 plus Glutamax (Invitrogen 31331-093) plus 5.5 mL MEM NEAA 100× (Invitrogen 11140-035) plus 50 mL FBS decomplemented (Invitrogen 10270-106) plus 200 μg/mL Geneticin (Invitrogen 10131-027) plus 50 μg/mL Hygromycin B (Invitrogen 10687-010) plus 2 μg/mL Blasticidin (anti-bl5b Invivo-Gen) plus 0.2 μg/mL Puromycin (A 11138-03)] at a cell density of 30.000 cells per well. Plates were incubated at 37° C. (5% CO2) for 20 to 23 h. On the day of experiment medium was discarded and cells were loaded with Fluo 4 by addition of 100 μL of basic assay buffer (10 mM HEPES, 1 mM KCl, 149 mM NaCl, 0.8 mM CaCl2, 1.7 mM MgCl2, 10 mM Glucose, 0.1% BSA. pH 7.4) containing 2 μM Fluo 4 (Molecular Probes; F-14201), 0.01% pluronic acid (Molecular Probes; P-6866) and 2.5 mM probenecid (Molecular Probes; P36400). Cells were incubated in the dark at 25° C. for 60 min. Then dye containing buffer was discarded and 100 μL basic (1 mM KCl) or alternative (30 mM KCl) assay buffer was added. The alternative assay buffer contained altered concentrations of KCl (30 mM) and NaCl (120 mM) and was used in order to promote the inactivated channel state. After that 25 μL of basic or alternative assay buffer with or without test compound were added and cells were incubated again in the dark at 25° C. for 15 min. Fluorescence intensity was measured on a FLIPR 3 instrument (Molecular Devices Corp., Sunnyvale, Calif.) with excitation at 480 nm and emission at 535 nm. After continuously reading fluorescence for 30 sec, 50 μL of basic assay buffer containing 210 mM KCl (NaCl omitted) were added for depolarization. Peak fluorescent signal intensity was determined and the amplitude of the peak signal, normalized to base line, was used to measure channel inhibition by test compounds.

T1 sequence (Q00975 whole entry): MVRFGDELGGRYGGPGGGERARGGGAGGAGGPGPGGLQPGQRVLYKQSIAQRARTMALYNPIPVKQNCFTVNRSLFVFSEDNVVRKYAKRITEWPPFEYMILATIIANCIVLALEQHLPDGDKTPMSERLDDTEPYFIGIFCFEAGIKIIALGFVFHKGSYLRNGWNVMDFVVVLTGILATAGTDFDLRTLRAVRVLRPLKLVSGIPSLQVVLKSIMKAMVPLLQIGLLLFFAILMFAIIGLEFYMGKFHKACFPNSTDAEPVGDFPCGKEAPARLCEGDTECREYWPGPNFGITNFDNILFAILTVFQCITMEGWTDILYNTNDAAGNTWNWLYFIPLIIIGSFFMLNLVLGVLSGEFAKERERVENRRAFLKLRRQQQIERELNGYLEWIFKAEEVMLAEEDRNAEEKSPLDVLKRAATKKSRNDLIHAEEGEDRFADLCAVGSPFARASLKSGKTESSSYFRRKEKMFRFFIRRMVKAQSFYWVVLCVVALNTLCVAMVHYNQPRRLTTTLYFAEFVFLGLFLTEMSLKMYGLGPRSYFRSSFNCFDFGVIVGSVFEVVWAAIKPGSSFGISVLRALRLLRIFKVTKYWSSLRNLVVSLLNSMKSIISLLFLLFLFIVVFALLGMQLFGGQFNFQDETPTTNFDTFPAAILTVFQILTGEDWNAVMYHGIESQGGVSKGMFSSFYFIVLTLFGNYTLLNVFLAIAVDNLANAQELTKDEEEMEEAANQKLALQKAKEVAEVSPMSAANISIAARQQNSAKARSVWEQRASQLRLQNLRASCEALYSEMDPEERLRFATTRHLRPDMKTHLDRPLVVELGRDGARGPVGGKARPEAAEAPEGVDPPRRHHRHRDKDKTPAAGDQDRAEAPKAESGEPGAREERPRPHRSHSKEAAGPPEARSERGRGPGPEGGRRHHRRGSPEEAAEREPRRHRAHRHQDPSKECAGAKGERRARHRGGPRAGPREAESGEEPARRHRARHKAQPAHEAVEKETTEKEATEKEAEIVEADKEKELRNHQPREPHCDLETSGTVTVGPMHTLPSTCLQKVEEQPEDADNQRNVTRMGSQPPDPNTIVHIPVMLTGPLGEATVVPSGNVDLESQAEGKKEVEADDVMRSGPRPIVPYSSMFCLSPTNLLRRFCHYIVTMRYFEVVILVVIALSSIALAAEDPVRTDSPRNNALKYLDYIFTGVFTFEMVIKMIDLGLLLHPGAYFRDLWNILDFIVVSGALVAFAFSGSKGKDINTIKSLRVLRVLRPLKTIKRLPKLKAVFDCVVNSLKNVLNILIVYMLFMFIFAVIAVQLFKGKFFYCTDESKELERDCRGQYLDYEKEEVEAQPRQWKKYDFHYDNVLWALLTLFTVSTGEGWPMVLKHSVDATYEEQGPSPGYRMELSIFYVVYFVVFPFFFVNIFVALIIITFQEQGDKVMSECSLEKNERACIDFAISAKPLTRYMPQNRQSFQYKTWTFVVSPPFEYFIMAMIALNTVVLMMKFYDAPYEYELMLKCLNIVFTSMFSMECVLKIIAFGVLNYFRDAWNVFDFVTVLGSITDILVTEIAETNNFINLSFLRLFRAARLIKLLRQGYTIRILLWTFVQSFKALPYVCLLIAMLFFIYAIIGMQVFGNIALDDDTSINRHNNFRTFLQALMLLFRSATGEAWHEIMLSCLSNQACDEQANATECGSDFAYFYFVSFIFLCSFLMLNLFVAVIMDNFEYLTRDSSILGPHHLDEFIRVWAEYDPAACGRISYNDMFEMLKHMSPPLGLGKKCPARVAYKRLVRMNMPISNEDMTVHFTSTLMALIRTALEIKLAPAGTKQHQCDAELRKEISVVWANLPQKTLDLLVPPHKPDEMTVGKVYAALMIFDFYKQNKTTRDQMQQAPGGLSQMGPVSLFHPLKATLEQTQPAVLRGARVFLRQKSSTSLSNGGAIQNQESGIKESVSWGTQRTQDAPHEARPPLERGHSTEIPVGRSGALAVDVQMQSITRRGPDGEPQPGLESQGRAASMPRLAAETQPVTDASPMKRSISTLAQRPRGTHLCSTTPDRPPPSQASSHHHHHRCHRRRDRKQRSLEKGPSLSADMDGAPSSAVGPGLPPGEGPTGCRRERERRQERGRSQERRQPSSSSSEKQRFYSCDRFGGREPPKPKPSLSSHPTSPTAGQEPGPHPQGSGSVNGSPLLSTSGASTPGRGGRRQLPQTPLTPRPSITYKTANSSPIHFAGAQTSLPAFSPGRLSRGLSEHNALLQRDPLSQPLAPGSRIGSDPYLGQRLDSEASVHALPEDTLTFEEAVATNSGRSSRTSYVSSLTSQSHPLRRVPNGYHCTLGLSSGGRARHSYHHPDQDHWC
T1 sequence (P54289 25-1103, further chain): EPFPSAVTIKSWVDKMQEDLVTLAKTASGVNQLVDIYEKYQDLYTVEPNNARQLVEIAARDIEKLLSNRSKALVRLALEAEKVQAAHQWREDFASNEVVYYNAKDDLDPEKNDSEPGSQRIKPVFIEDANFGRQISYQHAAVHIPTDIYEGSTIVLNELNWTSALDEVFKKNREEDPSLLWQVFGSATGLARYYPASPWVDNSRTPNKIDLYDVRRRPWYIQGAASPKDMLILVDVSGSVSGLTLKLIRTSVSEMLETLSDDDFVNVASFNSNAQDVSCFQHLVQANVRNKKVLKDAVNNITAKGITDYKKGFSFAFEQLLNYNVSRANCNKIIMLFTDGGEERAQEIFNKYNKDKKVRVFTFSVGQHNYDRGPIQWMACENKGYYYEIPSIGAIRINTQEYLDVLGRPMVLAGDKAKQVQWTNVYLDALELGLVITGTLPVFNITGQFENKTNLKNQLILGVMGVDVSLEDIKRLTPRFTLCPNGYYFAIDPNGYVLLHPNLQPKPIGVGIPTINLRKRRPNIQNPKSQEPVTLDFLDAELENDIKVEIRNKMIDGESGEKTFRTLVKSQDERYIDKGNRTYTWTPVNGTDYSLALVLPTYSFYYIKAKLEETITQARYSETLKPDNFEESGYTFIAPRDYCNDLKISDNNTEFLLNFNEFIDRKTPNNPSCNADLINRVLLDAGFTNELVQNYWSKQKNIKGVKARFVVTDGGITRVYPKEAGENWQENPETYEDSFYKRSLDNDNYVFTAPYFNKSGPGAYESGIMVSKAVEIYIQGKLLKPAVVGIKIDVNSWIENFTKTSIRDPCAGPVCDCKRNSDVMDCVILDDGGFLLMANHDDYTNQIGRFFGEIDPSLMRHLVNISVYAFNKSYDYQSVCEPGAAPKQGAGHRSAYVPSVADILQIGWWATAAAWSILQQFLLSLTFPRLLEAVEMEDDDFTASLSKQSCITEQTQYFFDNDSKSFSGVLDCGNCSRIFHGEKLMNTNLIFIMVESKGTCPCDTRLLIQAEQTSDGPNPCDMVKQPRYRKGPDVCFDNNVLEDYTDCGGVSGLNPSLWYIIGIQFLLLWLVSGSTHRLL
T1 sequence (P54284 whole entry, further chain): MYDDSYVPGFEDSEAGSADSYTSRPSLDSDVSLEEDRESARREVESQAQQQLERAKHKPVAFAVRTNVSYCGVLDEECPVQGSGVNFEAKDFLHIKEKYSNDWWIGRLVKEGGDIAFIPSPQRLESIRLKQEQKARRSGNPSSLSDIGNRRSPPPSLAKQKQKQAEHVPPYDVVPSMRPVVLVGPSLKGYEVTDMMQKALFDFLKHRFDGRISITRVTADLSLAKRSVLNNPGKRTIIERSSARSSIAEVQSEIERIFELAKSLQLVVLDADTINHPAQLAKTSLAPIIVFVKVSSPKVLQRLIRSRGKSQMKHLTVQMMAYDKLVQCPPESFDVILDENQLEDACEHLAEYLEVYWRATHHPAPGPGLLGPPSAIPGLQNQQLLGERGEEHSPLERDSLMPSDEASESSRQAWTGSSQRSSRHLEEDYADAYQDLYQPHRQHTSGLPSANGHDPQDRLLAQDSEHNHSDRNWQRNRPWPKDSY

Row | Compound | inhibition at 3 µM
1 | Cc1c(-c2ccc(Cl)cc2)c(C(=O)N2CCOCC2)n(CCn2ccccc2=O)c1C(F)(F)F [Example 055, 1-[2-[3-(4-Chlorophenyl)-4-methyl-2-(morpholine-4-carbonyl)-5-(trifluoromethyl)-1H-pyrrol-1-yl]-ethyl]-1H-pyridin-2-one] | 40 to 75%
2 | Cc1c(-c2ccc(Cl)cc2)c(C(=O)N2CCOCC2)n(Cn2ccccc2=O)c1C(F)(F)F [Example 056, 1-[[3-(4-Chlorophenyl)-4-methyl-2-(morpholine-4-carbonyl)-5-(trifluoromethyl)-1H-pyrrol-1-yl]-methyl]-1H-pyridin-2-one] | 75 to 95%
3 | Cc1c(-c2ccc(Cl)cc2)c(C(=O)N2CCOCC2)n(Cc2ncn[nH]2)c1C(F)(F)F [Example 060, [3-(4-Chlorophenyl)-4-methyl-1-(1H-[1,2,4]triazol-3-yl-methyl)-5-(trifluoromethyl)-1H-pyrrol-2-yl]-morpholin-4-yl-methanone] | 40 to 75%
4 | Cc1c(-c2ccc(Cl)cc2)c(C(=O)N(C)C(C)C)n(Cc2ncccn2)c1C(F)(F)F [Example 061, 3-(4-Chlorophenyl)-N-isopropyl-N,4-dimethyl-1-(pyrimidin-2-yl-methyl)-5-(trifluoromethyl)-1H-pyrrole-2-carboxylic acid amide] | > 95%
5 | Cc1c(-c2ccc(Cl)cc2F)c(C(=O)N2CCOCC2)n(Cc2ncccn2)c1C(F)(F)F [Example 062, [3-(4-Chloro-2-fluoro-phenyl)-4-methyl-1-(pyrimidin-2-yl-methyl)-5-(trifluoromethyl)-1H-pyrrol-2-yl]-morpholin-4-yl-methanone] | > 95%
6 | Cc1c(-c2ccc(Cl)cc2F)c(C(=O)N(C)C2CC2)n(Cc2ncccn2)c1C(F)(F)F [Example 063, 3-(4-Chloro-2-fluoro-phenyl)-N-cyclopropyl-N,4-dimethyl-1-(pyrimidin-2-yl-methyl)-5-(trifluoromethyl)-1H-pyrrole-2-carboxylic acid amide] | > 95%
7 | Cc1c(-c2ccc(Cl)cc2F)c(C(=O)N(C)C(C)C)n(Cc2ncccn2)c1C(F)(F)F [Example 064, 3-(4-Chloro-2-fluoro-phenyl)-N-isopropyl-N,4-dimethyl-1-(pyrimidin-2-yl-methyl)-5-(trifluoromethyl)-1H-pyrrole-2-carboxylic acid amide] | > 95%
8 | Cc1noc(Cn2c(C(F)(F)F)cc(-c3ccc(F)cc3)c2C(=O)N(C)C(C)C)n1 [Example 065, 3-(4-Fluorophenyl)-N-isopropyl-N-methyl-1-[(3-methyl-[1,2,4]oxadiazol-5-yl)-methyl]-5-(trifluoromethyl)-1H-pyrrole-2-carboxylic acid amide] | 75 to 95%
9 | Cc1cc(CN(C)C(=O)c2c(-c3ccc(Cl)cc3F)c(C)c(C(F)(F)F)n2Cc2ncccn2)no1 [Example 066, 3-(4-Chloro-2-fluoro-phenyl)-N,4-dimethyl-N-[(5-methyl-isoxazol-3-yl)-methyl]-1-(pyrimidin-2-yl-methyl)-5-(trifluoromethyl)-1H-pyrrole-2-carboxylic acid amide] | > 95%
10 | Cc1cc(Cn2c(C(=O)N(C)C(C)C)c(-c3ccc(Cl)cc3)c(C)c2C(F)(F)F)on1 [Example 067, 3-(4-Chlorophenyl)-N-isopropyl-N,4-dimethyl-1-[(3-methyl-isoxazol-5-yl)-methyl]-5-(trifluoromethyl)-1H-pyrrole-2-carboxylic acid amide] | > 95%
11 | Cc1cc(Cn2c(C(=O)N(C)C(C)C)c(-c3ccc(Cl)cc3)c(C)c2C(F)(F)F)no1 [Example 068, 3-(4-Chlorophenyl)-N-isopropyl-N,4-dimethyl-1-[(5-methyl-isoxazol-3-yl)-methyl]-5-(trifluoromethyl)-1H-pyrrole-2-carboxylic acid amide] | > 95%
12 | Cc1c(-c2ccc(Cl)cc2)c(C(=O)N(C)C(C)C)n(Cc2nncs2)c1C(F)(F)F [Example 069, 3-(4-Chlorophenyl)-N-isopropyl-N,4-dimethyl-1-([1,3,4]thiadiazol-2-yl-methyl)-5-(trifluoromethyl)-1H-pyrrole-2-carboxylic acid amide] | > 95%
